Data on 1 compound can be found in ChEMBL document CHEMBL1145306, “Synthesis of 2-C-hydroxymethylribofuranosylpurines as potent anti-hepatitis C virus (HCV) agents” (2006).

Test [1] concerns Hepatitis C virus. As to the kind of experiment: Antiviral activity against HCV in Huh7 cell line at 1 uM assessed as reduction in luciferase activity. Conditions: Huh-7. The class given is functional, Hepacivirus hominis.
Test [2] deals with Hepatitis C virus. As to the kind of experiment: Antiviral activity against HCV in Huh7 cell line at 10 uM assessed as reduction in luciferase activity. The class given is functional, Hepacivirus hominis. Conditions: Huh-7.

Regarding `Nc1ncnc2c1ncn2[C@@H]1O[C@H](CO)[C@@H](O)[C@]1(O)CO`, in the test with Hepatitis C virus [1], the inhibition (usually the percentage by which the read-out fell short of the control) at 1 µM was 2%. The inhibition at 10 µM with Hepatitis C virus [2] stood at 50%.
